US20230141823A1, “PREBIOTIC AND PROBIOTIC TREATMENT TO REDUCE ORAL DYSBIOSIS AND PROMOTE EUBIOSIS” (FUNDACIÓN PARA EL FOMENTO DE LA INVESTIGACIÓN SANITARIA Y …, priority 2019, published 2023)
Like-named read-outs stand apart in the source and are kept apart here.

Legend:
[1] = system: oral biofilms grown from unstimulated saliva
Experimental: (§1) BHI medium (Biolife) with an additional 0.05 mg/L haemin, 0.005 mg/L menadione and 0.2 mM vitamin K (all Sigma-Aldrich) was prepared of which 100 pi was added to each well for background impedance measurements. An additional 25 µl of a 65 mM nitrate in water or just water were added to each well of the nitrate or control condition, respectively. Then, 125 pi freshly collected saliva was added, leading to a final concentration of 6.5 mM nitrate in the nitrate condition. The E-Plate 96 was placed in the xCELLigence system inside an incubator at 37° C. Every 10 minutes, a Cell Index measurement was taken. […] For Oh measurements, 1:1 medium and saliva mixtures were used. Then, duplicates of supernatant and biofilm were taken after 5 h and 9 h of growth. The supernatant was sampled and stored at −20° C. until pH, nitrate, nitrite, ammonium and lactate measurements. After this, a PBS washing step was performed and duplicates of biofilms were resuspended together in 200 pi PBS for storage at −20° C. until DNA isolation for sequencing.
For the nitrate, nitrite, ammonium, lactate and pH measurements, the RQflex® 10 Reflectoquant® (Merck Millipores), a reflectometer that measures the reflection of color changing test strips, was used.
In the case of nitrate, nitrite, ammonium and lactate measurements, the supernatant of the cultures was diluted 1:10 with water to minimize the interference of medium compounds. […] For pH measurements, undiluted supernatant was used. For all measurements except ammonium, 15 pi of (diluted) supernatant was added to two reactive patches on a strip, excess liquid was removed by tipping the side of the strip on a tissue, the corresponding incubation time was applied for each measurement, and the strip was put inside the reflectometer.
Nitrite was measured first. The diluted supernatants in which 0.5 mg/l or more nitrite was detected were treated with amidosulfuric acid to remove nitrite before nitrate measurements. For this, […] of diluted supernatant was mixed with 1.5 ml amidosulfuric acid solution (10%), and directly added to the strips.
For ammonium measurements, aliquots were made of […] diluted supernatant to which 10 m l of reagent 1 of the kit was added first and resuspended well. Then, […] of a freshly made mixture of one scoop of reagent 2 (both provided with the kit) dissolved in 1.25 ml water was added directly and resuspended well. This solution was then directly added to the strips and incubated. Five seconds before the measurements, excess liquid was removed. All measured concentrations were adjusted by dilution factors.

[2] = system: oral biofilms grown from unstimulated saliva; details: 6.5 mM nitrate
Experimental: as §1
For DNA extraction, the biofilms were resuspended in 100 pi PBS and disaggregated 30 s in a sonicator bath (model Raypa VCI-50) at low ultrasound intensity. After this, DNA was isolated by MagNA Pure LC 2.0 Instrument (Roche Diagnostics), using the MagNA Pure LC DNA Isolation Kit III for Bacteria and Fungi (Roche Diagnostics) following the manufacturer's instructions with an additional enzymatic lysis step: to a salivary pellet in 100 pi PBS, […] lysis buffer and […] of enzyme mix, containing 20 mg/ml lysozyme ([…]), 5 mg/l lysostaphin (Sigma-Aldrich) and 0.625 mg/ml mutanolysin (Sigma-Aldrich), were added and incubated for 60 min at 37° C. DNA was resuspended in […] elution buffer and frozen at −20° C. until further analysis. To determine the amount of DNA for sequencing, the Quant-iT™ PicoGreen® dsDNA Assay Kit (ThermoFisher) and a Qubit™ 3 Fluorometer (ThermoScientific) were used, according to manufacturer's instructions.
A pre-amplification step of the V1-V5 regions of the 16S rRNA gene was performed, following Dzidic et al 2019. An Illumina amplicon library was performed following the 16S rDNA gene Metagenomic Sequencing Library Preparation Illumina protocol (Part #15044223 Rev. A). The gene-specific primer sequences used in this protocol were 16S Amplicon F (SEQ ID NO: 8) and 16S Amplicon R (SEQ ID NO: 9), targeting the 16S rDNA gene V3 and V4 regions, resulting in a single amplicon of 460 bp. Overhang adapter sequences were used together for compatibility with Illumina index and sequencing adapters. After 16S rDNA gene amplification, the DNA was sequenced on a MiSeq Sequencer according to manufacturer's instructions (Illumina) using the 2×300 bp paired-ends protocol.
The sequences were analyzed according to Boix-Amoros et al., 2016. In short, the reads were quality-filtered and end-trimmed in 10 bp windows with Prinseq. The PCR chimeras were removed with UCHIME according to Edgar et al., 2011. Only filtered sequences >250 bp were used to be taxonomically assigned at the genus level with the classifier of the Ribosomal Database Project (Wang et al., 2007), using a confidence interval of 80%. Operational Taxonomic Unit (OTU) picking was performed using VSEARCH (Rognes, 2016) at a 97% of sequence identity. Each OTU was aligned centroid using BLAST at 97% of identity and 100% query coverage, and retrieved only those species that agreed with the previous classification of the centroid at genus level provided by RDP classifier.
Overall R programming language was used for statistical computing to perform downstream analyses. Genera with an abundance of <0.01% were removed from all groups.

O=[N+]([O-])O [Nitrate, nitrate]
decrease of nitrate after 5 h ([1]; 6.5 mM nitrate added, 5 of 12 donors): 76-85%
nitrate left after 5 h ([1]; 6.5 mM nitrate added, 7 of 12 individuals): no nitrate detectable
average nitrite in supernatant ([1]; 6.5 mM nitrate condition, 5 h (1.64 mg/l at 0 h)): 64.68 mg/L
pH compared to control condition ([1]; 6.5 mM nitrate, 5 h and 9 h, p<0.005): significantly higher
share of the 6.5 mM added nitrate accounted for by ammonium (stoichiometric) ([1]; after 9 h): 73.1%
increase of average ammonium after 5 h ([1]; nitrate condition (control 1.72×)): 2.21 ×
increase of average lactate after 5 h ([1]; nitrate condition (control 4.74×)): 3.40 ×
ammonium higher than in the control condition ([1]; nitrate condition, after 9 h): 4.75 mM
increase of Neisseria compared to control condition ([2]; 5 h): 3.5 ×
Bacterial abundance Aggregatibacter (Average) ([2]; 5 h (n = 12)): 0.55%
Bacterial abundance Alloprevotella (Average) ([2]; 5 h (n = 12)): 0.21%
Bacterial abundance Fusobacterium (Average) ([2]; 5 h (n = 12)): 0.15%
Bacterial abundance Gemella (Average) ([2]; 5 h (n = 12)): 2.76%
Bacterial abundance Granulicatella (Average) ([2]; 5 h (n = 12)): 2.16%
Bacterial abundance Haemophilus (Average) ([2]; 5 h (n = 12)): 7.30%
Bacterial abundance Leptotrichia (Average) ([2]; 5 h (n = 12)): 0.14%
Bacterial abundance Neisseria (Average) ([2]; 5 h (n = 12)): 20.65%
Bacterial abundance Other (Average) ([2]; 5 h (n = 12)): 3.64%
Bacterial abundance Porphyromonas (Average) ([2]; 5 h (n = 12)): 0.56%
Bacterial abundance Prevotella (Average) ([2]; 5 h (n = 12)): 1.99%
Bacterial abundance Rothia (Average) ([2]; 5 h (n = 12)): 0.53%
Bacterial abundance Streptococcus (Average) ([2]; 5 h (n = 12)): 45.29%
Bacterial abundance Viellonella (Average) ([2]; 5 h (n = 12)): 10.84%
Bacterial abundance unclass. Neisseriaceae (Average) ([2]; 5 h (n = 12)): 0.95%
Bacterial abundance unclass. Pasteurellaceae (Average) ([2]; 5 h (n = 12)): 2.00%
Bacterial abundance unclass. Veillonellaceae (Average) ([2]; 5 h (n = 12)): 0.26%
Rothia higher than in control condition ([2]; 5 h and 9 h): 2.7 ×
increase of Neisseria compared to control condition ([2]; 9 h): 4.9 ×
Bacterial abundance Aggregatibacter (Average) ([2]; 9 h (n = 12)): 0.72%
Bacterial abundance Alloprevotella (Average) ([2]; 9 h (n = 12)): 0.37%
Bacterial abundance Fusobacterium (Average) ([2]; 9 h (n = 12)): 0.38%
Bacterial abundance Gemella (Average) ([2]; 9 h (n = 12)): 1.83%
Bacterial abundance Granulicatella (Average) ([2]; 9 h (n = 12)): 1.56%
Bacterial abundance Haemophilus (Average) ([2]; 9 h (n = 12)): 8.86%
Bacterial abundance Leptotrichia (Average) ([2]; 9 h (n = 12)): 0.16%
Bacterial abundance Neisseria (Average) ([2]; 9 h (n = 12)): 20.99%
Bacterial abundance Other (Average) ([2]; 9 h (n = 12)): 4.80%
Bacterial abundance Porphyromonas (Average) ([2]; 9 h (n = 12)): 1.51%
Bacterial abundance Prevotella (Average) ([2]; 9 h (n = 12)): 2.78%
Bacterial abundance Rothia (Average) ([2]; 9 h (n = 12)): 0.25%
Bacterial abundance Streptococcus (Average) ([2]; 9 h (n = 12)): 31.75%
Bacterial abundance Viellonella (Average) ([2]; 9 h (n = 12)): 20.40%
Bacterial abundance unclass. Neisseriaceae (Average) ([2]; 9 h (n = 12)): 1.07%
Bacterial abundance unclass. Pasteurellaceae (Average) ([2]; 9 h (n = 12)): 2.12%
Bacterial abundance unclass. Veillonellaceae (Average) ([2]; 9 h (n = 12)): 0.38%
change of Kingella ([2]; after 5 h, p<0.05): increased significantly
Porphyromonas, Fusobacterium, Leptotrichia, Alloprevotella, Dialister and Parvimonas versus control ([2]; p<0.05 at 5 h and/or 9 h): significantly lower
change of caries-associated Atopobium and Oribacterium ([2]; p<0.05 at 5 h or 5 h and 9 h): decreased significantly
